Experimental data taken from patent US9328374B2, “Selective culture medium and method for detecting carbapenem-resistant bacteria in a test sample” (Institut National de la Sante et de la Recherche Medicale …, priority 2011, dated 2016).

Tested on: K. pneumoniae
Experiment: MIC of imipenem, ertapenem and meropenem
Type: cell-based, Klebsiella pneumoniae

`C[C@@H](O)[C@H]1C(=O)N2C(C(=O)O)=C(SCCN=CN)C[C@H]12` [IPM, imipenem] gave an MIC (K. pneumoniae KDH (DHA-2)) of 0.12 µg/mL, an MIC (K. pneumoniae KDH, DHA-2, non-carbapenemase producer, overexpressed AmpC) of 0.12 µg/mL and an MIC (K. pneumoniae KI2, NDM-1 + CTX-M-15 + OXA-1) of 1 µg/mL. For the same molecule, the MIC (K. pneumoniae KIE, NDM-1 + SHV-38 + CMY-16 + OXA-10) was 0.75 µg/mL, the MIC (K. pneumoniae KPN (CTX-M-15)) was 0.12 µg/mL and the MIC (K. pneumoniae KPN, CTX-M-15, non-carbapenemase producer) was 0.12 µg/mL. It also gave an MIC (K. pneumoniae LEG (CTX-M-15 + TEM-1 + SHV-12)) of 0.75 µg/mL, an MIC (K. pneumoniae LEG, CTX-M-15 + TEM-1 + SHV-12, non-carbapenemase producer, porin deficiency) of 0.75 µg/mL and an MIC (K. pneumoniae LIB (OXA-48)) of over 32 µg/mL. For the same molecule, the MIC (K. pneumoniae LIB, OXA-48) was 16 µg/mL, the MIC (K. pneumoniae LIE, KPC-2 + TEM-2 + OXA-9) was over 32 µg/mL and the MIC (K. pneumoniae LOU, OXA-48) was 4 µg/mL. It also gave an MIC (K. pneumoniae MAD (VIM-1 + CTX-M-3)) of 1 µg/mL, an MIC (K. pneumoniae MAD, VIM-1+ CTX-M-3) of 1 µg/mL and an MIC (K. pneumoniae MEK (CTX-M-15 + SHV-11)) of 1.5 µg/mL. It also gave an MIC (K. pneumoniae MEK, CTX-M-15 + SHV-11, non-carbapenemase producer, porin deficiency) of 1.5 µg/mL, an MIC (K. pneumoniae MUS (KPC-2 + TEM-1 + SHV-11 + SHV-12)) of 0.75 µg/mL and an MIC (K. pneumoniae MUS, KPC-2 + TEM-1 + SHV-11 + SHV-12) of 0.75 µg/mL. The MIC (K. pneumoniae OM2 (NDM-1 + TEM-1 + CTX-M-3 + SHV-11 + OXA-1)) was 0.75 µg/mL, the MIC (K. pneumoniae OM2, NDM-1 + TEM-1 + CTX-M-3 + SHV-11 + OXA-1) was 0.75 µg/mL and the MIC (K. pneumoniae OM4, NDM-1 + TEM-1 + CTX-M-15 + SHV-12 + OXA-9) was 4 µg/mL. The MIC (K. pneumoniae OM8, NDM-1 + TEM-1 + CTX-M-15 + SHV-11 + OXA-1) was 2 µg/mL, the MIC (K. pneumoniae OM11, OXA-48 + TEM-1 + CTX-M-14) was 0.5 µg/mL and the MIC (K. pneumoniae OM13, NDM-1 + TEM-1 + CTX-M-15 + SHV-28 + OXA-1 + OXA-9) was 3 µg/mL. For the same molecule, the MIC (K. pneumoniae OM14, OXA-48 + TEM-1) was 0.5 µg/mL, the MIC (K. pneumoniae OM15, NDM-1 + CTX-M-15 + SHV-130 + OXA-1) was 1.5 µg/mL and the MIC (K. pneumoniae OM16, NDM-1 + CTX-M-15 + OXA-1 + OXA-181) was 8 µg/mL. For the same molecule, the MIC (K. pneumoniae OM19, NDM-1 + CTX-M-15 + SHV-12 + OXA-1) was 4 µg/mL, the MIC (K. pneumoniae OMA419 (NDM-1 + OXA-1)) was 1.5 µg/mL and the MIC (K. pneumoniae OMA419, NDM-1 + OXA-1) was 1.5 µg/mL. The MIC (K. pneumoniae OMA601, NDM-1 + CTX-M-15 + OXA-1 + OXA-9) was over 32 µg/mL, the MIC (K. pneumoniae OMA (OXA-181 + CTX-M-15 + OXA-1)) was 0.5 µg/mL and the MIC (K. pneumoniae OMA, OXA-181 + CTXM-15 + OXA-1) was 0.5 µg/mL. For the same molecule, the MIC (K. pneumoniae RAM (OXA-48)) was 1 µg/mL, the MIC (K. pneumoniae RAM, OXA-48) was 1 µg/mL and the MIC (K. pneumoniae ROB (OXA-48 + CTX-M-15 + TEM-1)) was 0.38 µg/mL. It also gave an MIC (K. pneumoniae ROU (OXA-48 + CTX-M-15)) of 0.5 µg/mL, an MIC (K. pneumoniae ROU, OXA-48 + CTX-M-15) of 0.5 µg/mL and an MIC (K. pneumoniae SCO (OXA-48)) of 0.5 µg/mL. It also gave an MIC (K. pneumoniae SCO, OXA-48) of 0.5 µg/mL, an MIC (K. pneumoniae SHI (CTX-M-15 + TEM-1 + SHV-1)) of 0.25 µg/mL and an MIC (K. pneumoniae SHI, CTX-M-15 + TEM-1 + SHV-11, non-carbapenemase producer, porin deficiency) of 0.25 µg/mL. For the same molecule, the MIC (K. pneumoniae SHM (CTX-M-15 + TEM-1 + SHV-11)) was 3 µg/mL, the MIC (K. pneumoniae SHM, CTX-M-15 + TEM-1 + SHV-11, non-carbapenemase producer, porin deficiency) was 3 µg/mL and the MIC (K. pneumoniae SIC (OXA-48 + CTX-M-15 + SHV-28)) was 0.25 µg/mL. It also gave an MIC (K. pneumoniae SIC, OXA-48 + CTX-M-15 + SHV-28) of 0.25 µg/mL, an MIC (K. pneumoniae SIM (CTX-M-15 + TEM-1 + SHV-1)) of 8 µg/mL and an MIC (K. pneumoniae SIM, CTX-M-15 + TEM-1 + SHV-1, non-carbapenemase producer, porin deficiency) of 8 µg/mL. It also gave an MIC (K. pneumoniae TAW, IMP-8 + SHV-12) of 0.5 µg/mL, an MIC (K. pneumoniae TIK, OXA-48) of 0.75 µg/mL and an MIC (K. pneumoniae TUR (IMP-1)) of 1 µg/mL. The MIC (K. pneumoniae TUR, IMP-1) was 1 µg/mL, the MIC (K. pneumoniae TWA, IMP-8) was 1 µg/mL and the MIC (K. pneumoniae UK (NDM-1 + CTX-M-15 + CMY-4 + OXA-1)) was over 32 µg/mL. It also gave an MIC (K. pneumoniae UK, NDM-1 + CTX-M-15 + CMY-4 + OXA-1) of over 32 µg/mL, an MIC (K. pneumoniae VER, OXA-48 + TEM-1 + CTX-M-15 + SHV-11) of 0.38 µg/mL and an MIC (K. pneumoniae VSG (OXA-48 + TEM-1 + CTX-M-15 + OXA-1)) of 0.75 µg/mL. It also gave an MIC (K. pneumoniae VSG, OXA-48 + TEM-1 + CTX-M-15 + OXA-1) of 0.75 µg/mL, an MIC (K. pneumoniae YC, KPC-2 + TEM-1 + SHV-11 + SHV-12 + OXA-9) of 4 µg/mL and an MIC (strain K. pneumoniae 7725, SHV-1, non-carbapenemase producer) of 0.19 µg/mL. It also gave an MIC (strain K. pneumoniae 648236, SHV-2a, non-carbapenemase producer) of 0.25 µg/mL, an MIC (strain K. pneumoniae ALE, CTX-M-15 + SHV-1, non-carbapenemase producer) of 1 µg/mL and an MIC (strain K. pneumoniae AMS, OXA-48 + TEM-1 + CTX-M-15 + OXA-1) of 0.5 µg/mL. It also gave an MIC (strain K. pneumoniae BAJ, OXA-48 + TEM-1 + CTX-M-15 + SHV-28) of 0.5 µg/mL, an MIC (strain K. pneumoniae BED, CTX-M-15 + TEM-1 + SHV-11, non-carbapenemase producer) of 1.5 µg/mL and an MIC (strain K. pneumoniae BEL, OXA-48) of 1 µg/mL. For the same molecule, the MIC (strain K. pneumoniae BEN, OXA-48 + TEM-1 + CTX-M-15 + SHV-28) was 0.38 µg/mL, the MIC (strain K. pneumoniae BER, SHV-28 + TEM-1, non-carbapenemase producer) was 1 µg/mL and the MIC (strain K. pneumoniae ELK, OXA-48 + TEM-1 + CTX-M-15 + SHV-11) was 0.5 µg/mL. It also gave an MIC (strain K. pneumoniae HOL, OXA-181 + CTX-M-15) of 1 µg/mL, an MIC (strain K. pneumoniae MUS, KPC-2 + TEM-1 + SHV-11 + SHV-12) of 0.75 µg/mL and an MIC (strain K. pneumoniae OM2, NDM-1 + TEM-1 + CTX-M-3 + SHV-11 + OXA-1) of 0.75 µg/mL. For the same molecule, the MIC (strain K. pneumoniae OMA419, NDM-1 + OXA-1) was 1.5 µg/mL, the MIC (strain K. pneumoniae OMA, OXA-181 + CTXM-15 + OXA-1) was 0.5 µg/mL and the MIC (strain K. pneumoniae ROU, OXA-48 + CTX-M-15) was 0.5 µg/mL. It also gave an MIC (strain K. pneumoniae SCO, OXA-48) of 0.5 µg/mL, an MIC (strain K. pneumoniae SIC, OXA-48 + CTX-M-15 + SHV-28) of 0.25 µg/mL and an MIC (strain K. pneumoniae VSG, OXA-48 + TEM-1 + CTX-M-15 + OXA-1) of 0.75 µg/mL.
